Results published in ChEMBL document CHEMBL3991601, “The target landscape of clinical kinase drugs” (Science, 2017).
The source made the active and inactive calls. Cut-off read from the data, not from the text of the source, for most assays here: actives have a measured Kd and inactives only a lower limit.

target: DnaJ homolog subfamily A member 1 (Homo sapiens, UniProt P31689)
Note: in the data inactive means no Kd found up to 30 µM.

Chain of DnaJ homolog subfamily A member 1 (P31689 whole entry): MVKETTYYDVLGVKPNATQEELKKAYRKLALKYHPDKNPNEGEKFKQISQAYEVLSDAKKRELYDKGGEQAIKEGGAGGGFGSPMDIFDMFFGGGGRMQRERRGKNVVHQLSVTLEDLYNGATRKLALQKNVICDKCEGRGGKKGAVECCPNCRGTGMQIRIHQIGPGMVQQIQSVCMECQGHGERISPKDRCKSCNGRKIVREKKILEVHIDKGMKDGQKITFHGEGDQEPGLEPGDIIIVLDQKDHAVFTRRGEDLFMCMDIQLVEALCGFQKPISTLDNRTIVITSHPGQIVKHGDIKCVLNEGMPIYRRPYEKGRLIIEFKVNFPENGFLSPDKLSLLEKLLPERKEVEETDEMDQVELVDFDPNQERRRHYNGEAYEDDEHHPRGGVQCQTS

Row | Compound | Kd
1 | CN1CCC(COc2cnc(-c3cccc(Cn4nc(-c5cccc(C#N)c5)ccc4=O)c3)nc2)CC1 [TEPOTINIB] | > 30 µM (inactive)
2 | CC(=O)Nc1cccc(-n2c(=O)n(C3CC3)c(=O)c3c(Nc4ccc(I)cc4F)n(C)c(=O)c(C)c32)c1 [TRAMETINIB] | > 30 µM (inactive)
3 | CC(C)Nc1cc(-c2c[nH]c(C(=O)N[C@H](CO)c3cccc(Cl)c3)c2)c(Cl)cn1 [ULIXERTINIB] | > 30 µM (inactive)
4 | CCCS(=O)(=O)Nc1ccc(F)c(C(=O)c2c[nH]c3ncc(-c4ccc(Cl)cc4)cc23)c1F [VEMURAFENIB] | > 30 µM (inactive)
5 | CC[C@@H]1C(=O)N(C)c2cnc(Nc3ccc(C(=O)N[C@H]4CC[C@H](N5CCN(CC6CC6)CC5)CC4)cc3OC)nc2N1C(C)C [VOLASERTIB] | > 30 µM (inactive)
6 | CCn1c(=O)c(-c2cc[nH]n2)cc2c(C)nc(N)nc21 [VOXTALISIB] | > 30 µM (inactive)
7 | O=C(Nc1ccc(-c2ccnc(Nc3ccc(N4CCOCC4)cc3)n2)cc1)C1CCCN1 (centres undefined) [XL-019] | > 30 µM (inactive)

target: Cyclin-dependent kinase 12 (Homo sapiens, UniProt Q9NYV4)
Sequence (Q9NYV4 whole entry): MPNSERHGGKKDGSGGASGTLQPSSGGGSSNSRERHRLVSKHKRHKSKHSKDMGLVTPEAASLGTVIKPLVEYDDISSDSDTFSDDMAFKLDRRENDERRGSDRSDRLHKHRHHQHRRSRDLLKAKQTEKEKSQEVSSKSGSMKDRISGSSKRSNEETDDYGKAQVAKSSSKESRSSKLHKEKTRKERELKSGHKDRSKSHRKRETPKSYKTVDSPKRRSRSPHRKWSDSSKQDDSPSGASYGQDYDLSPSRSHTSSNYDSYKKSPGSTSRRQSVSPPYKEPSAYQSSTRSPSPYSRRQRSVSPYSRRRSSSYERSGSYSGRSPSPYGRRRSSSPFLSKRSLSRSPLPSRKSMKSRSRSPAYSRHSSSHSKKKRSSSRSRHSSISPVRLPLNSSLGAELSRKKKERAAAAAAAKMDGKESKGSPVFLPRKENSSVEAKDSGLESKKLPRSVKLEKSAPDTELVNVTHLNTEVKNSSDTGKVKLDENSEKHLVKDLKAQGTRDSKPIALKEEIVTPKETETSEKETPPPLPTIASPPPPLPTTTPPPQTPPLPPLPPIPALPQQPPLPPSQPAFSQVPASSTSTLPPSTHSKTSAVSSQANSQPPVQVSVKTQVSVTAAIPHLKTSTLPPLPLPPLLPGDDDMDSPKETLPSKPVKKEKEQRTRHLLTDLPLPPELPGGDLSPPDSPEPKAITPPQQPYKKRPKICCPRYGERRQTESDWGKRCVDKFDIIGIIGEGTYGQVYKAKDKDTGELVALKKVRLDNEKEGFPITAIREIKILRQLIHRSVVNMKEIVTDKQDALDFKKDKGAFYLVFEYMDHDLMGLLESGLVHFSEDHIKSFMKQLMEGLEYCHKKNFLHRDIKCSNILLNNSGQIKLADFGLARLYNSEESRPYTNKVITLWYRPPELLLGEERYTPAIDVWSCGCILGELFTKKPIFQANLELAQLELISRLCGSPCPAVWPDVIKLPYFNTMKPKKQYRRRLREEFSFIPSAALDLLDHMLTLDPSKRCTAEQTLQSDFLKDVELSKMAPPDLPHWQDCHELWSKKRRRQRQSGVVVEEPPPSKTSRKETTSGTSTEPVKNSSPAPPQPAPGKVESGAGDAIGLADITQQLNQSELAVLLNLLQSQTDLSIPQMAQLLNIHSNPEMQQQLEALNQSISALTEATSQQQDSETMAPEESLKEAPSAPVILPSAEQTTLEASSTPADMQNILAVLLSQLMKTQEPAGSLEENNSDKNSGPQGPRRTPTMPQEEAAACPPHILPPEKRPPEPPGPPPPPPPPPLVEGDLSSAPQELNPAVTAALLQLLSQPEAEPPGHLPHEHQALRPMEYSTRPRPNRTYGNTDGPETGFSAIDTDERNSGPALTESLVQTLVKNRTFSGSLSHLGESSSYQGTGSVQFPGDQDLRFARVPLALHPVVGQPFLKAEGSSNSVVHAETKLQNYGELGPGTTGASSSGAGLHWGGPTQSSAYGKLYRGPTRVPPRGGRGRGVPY

Row | Compound | Kd
8 | CN1CCC(COc2cnc(-c3cccc(Cn4nc(-c5cccc(C#N)c5)ccc4=O)c3)nc2)CC1 [TEPOTINIB] | > 30 µM (inactive)
9 | CC(=O)Nc1cccc(-n2c(=O)n(C3CC3)c(=O)c3c(Nc4ccc(I)cc4F)n(C)c(=O)c(C)c32)c1 [TRAMETINIB] | > 30 µM (inactive)
10 | CC(C)Nc1cc(-c2c[nH]c(C(=O)N[C@H](CO)c3cccc(Cl)c3)c2)c(Cl)cn1 [ULIXERTINIB] | > 30 µM (inactive)
11 | CCCS(=O)(=O)Nc1ccc(F)c(C(=O)c2c[nH]c3ncc(-c4ccc(Cl)cc4)cc23)c1F [VEMURAFENIB] | > 30 µM (inactive)
12 | CC[C@@H]1C(=O)N(C)c2cnc(Nc3ccc(C(=O)N[C@H]4CC[C@H](N5CCN(CC6CC6)CC5)CC4)cc3OC)nc2N1C(C)C [VOLASERTIB] | > 30 µM (inactive)
13 | CCn1c(=O)c(-c2cc[nH]n2)cc2c(C)nc(N)nc21 [VOXTALISIB] | > 30 µM (inactive)
14 | O=C(Nc1ccc(-c2ccnc(Nc3ccc(N4CCOCC4)cc3)n2)cc1)C1CCCN1 (centres undefined) [XL-019] | > 30 µM (inactive)

target: TRAF2 and NCK-interacting protein kinase (Homo sapiens, UniProt Q9UKE5)
Sequence (Q9UKE5 whole entry): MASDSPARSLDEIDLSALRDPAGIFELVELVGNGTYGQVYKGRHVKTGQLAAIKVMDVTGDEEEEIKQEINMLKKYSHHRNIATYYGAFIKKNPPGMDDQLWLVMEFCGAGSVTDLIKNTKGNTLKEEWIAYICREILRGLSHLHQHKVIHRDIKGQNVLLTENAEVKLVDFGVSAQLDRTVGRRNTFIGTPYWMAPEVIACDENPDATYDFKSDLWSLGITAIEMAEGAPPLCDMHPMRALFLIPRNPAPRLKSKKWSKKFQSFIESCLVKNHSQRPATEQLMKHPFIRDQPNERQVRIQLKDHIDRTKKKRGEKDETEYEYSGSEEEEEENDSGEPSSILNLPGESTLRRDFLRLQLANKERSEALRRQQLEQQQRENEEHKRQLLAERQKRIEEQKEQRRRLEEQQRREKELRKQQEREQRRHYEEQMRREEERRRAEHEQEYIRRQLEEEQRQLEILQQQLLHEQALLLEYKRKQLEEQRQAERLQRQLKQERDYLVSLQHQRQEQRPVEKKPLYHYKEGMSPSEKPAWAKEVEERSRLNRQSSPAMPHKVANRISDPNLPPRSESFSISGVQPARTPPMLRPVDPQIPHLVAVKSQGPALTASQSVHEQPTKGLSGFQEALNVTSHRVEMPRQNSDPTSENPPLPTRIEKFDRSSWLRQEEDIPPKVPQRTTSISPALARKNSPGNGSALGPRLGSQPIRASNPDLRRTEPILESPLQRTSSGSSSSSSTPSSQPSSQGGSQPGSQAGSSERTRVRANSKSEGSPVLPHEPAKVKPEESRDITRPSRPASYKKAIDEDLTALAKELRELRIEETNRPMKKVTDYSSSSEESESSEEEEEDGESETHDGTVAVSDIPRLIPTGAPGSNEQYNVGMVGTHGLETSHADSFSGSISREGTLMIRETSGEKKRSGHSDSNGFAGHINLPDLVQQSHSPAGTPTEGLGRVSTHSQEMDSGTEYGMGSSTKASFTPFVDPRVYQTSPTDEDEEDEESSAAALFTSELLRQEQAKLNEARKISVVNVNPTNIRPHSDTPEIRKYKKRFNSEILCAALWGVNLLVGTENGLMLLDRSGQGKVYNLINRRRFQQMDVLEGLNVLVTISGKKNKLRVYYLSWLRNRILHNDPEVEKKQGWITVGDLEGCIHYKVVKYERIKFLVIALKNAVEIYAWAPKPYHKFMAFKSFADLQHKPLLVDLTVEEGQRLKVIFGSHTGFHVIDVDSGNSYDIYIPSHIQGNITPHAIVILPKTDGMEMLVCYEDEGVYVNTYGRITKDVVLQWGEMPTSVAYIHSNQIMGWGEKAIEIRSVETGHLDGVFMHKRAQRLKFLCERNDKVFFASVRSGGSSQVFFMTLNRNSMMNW

Row | Compound | Kd
15 | CN1CCC(COc2cnc(-c3cccc(Cn4nc(-c5cccc(C#N)c5)ccc4=O)c3)nc2)CC1 [TEPOTINIB] | > 30 µM (inactive)
16 | CC(=O)Nc1cccc(-n2c(=O)n(C3CC3)c(=O)c3c(Nc4ccc(I)cc4F)n(C)c(=O)c(C)c32)c1 [TRAMETINIB] | > 30 µM (inactive)
17 | CC(C)Nc1cc(-c2c[nH]c(C(=O)N[C@H](CO)c3cccc(Cl)c3)c2)c(Cl)cn1 [ULIXERTINIB] | > 30 µM (inactive)
18 | CCCS(=O)(=O)Nc1ccc(F)c(C(=O)c2c[nH]c3ncc(-c4ccc(Cl)cc4)cc23)c1F [VEMURAFENIB] | > 30 µM (inactive)
19 | CC[C@@H]1C(=O)N(C)c2cnc(Nc3ccc(C(=O)N[C@H]4CC[C@H](N5CCN(CC6CC6)CC5)CC4)cc3OC)nc2N1C(C)C [VOLASERTIB] | > 30 µM (inactive)
20 | CCn1c(=O)c(-c2cc[nH]n2)cc2c(C)nc(N)nc21 [VOXTALISIB] | > 30 µM (inactive)
21 | O=C(Nc1ccc(-c2ccnc(Nc3ccc(N4CCOCC4)cc3)n2)cc1)C1CCCN1 (centres undefined) [XL-019] | > 30 µM (inactive)

target: T1, Mitogen-activated protein kinase kinase kinase 3 (Homo sapiens, UniProt Q99759)
T1 sequence (Q99759 whole entry): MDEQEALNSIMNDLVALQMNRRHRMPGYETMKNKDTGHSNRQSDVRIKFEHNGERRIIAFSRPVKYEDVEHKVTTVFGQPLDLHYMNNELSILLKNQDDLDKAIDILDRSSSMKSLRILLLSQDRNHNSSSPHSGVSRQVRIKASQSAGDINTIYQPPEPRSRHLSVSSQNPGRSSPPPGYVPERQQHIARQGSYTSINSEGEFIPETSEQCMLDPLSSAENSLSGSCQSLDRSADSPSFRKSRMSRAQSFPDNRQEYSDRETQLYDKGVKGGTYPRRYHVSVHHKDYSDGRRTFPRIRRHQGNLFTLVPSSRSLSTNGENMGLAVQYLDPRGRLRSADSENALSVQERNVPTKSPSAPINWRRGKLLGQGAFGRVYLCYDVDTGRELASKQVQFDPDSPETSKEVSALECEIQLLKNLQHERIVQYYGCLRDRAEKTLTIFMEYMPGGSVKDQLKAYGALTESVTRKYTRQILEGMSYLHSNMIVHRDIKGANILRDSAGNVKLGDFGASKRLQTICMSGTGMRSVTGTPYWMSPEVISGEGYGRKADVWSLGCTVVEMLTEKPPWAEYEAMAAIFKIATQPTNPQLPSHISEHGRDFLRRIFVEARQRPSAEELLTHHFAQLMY

Row | Compound | Kd
22 | CN1CCC(COc2cnc(-c3cccc(Cn4nc(-c5cccc(C#N)c5)ccc4=O)c3)nc2)CC1 [TEPOTINIB] | > 30 µM (inactive)
23 | CC(=O)Nc1cccc(-n2c(=O)n(C3CC3)c(=O)c3c(Nc4ccc(I)cc4F)n(C)c(=O)c(C)c32)c1 [TRAMETINIB] | > 30 µM (inactive)
24 | CC(C)Nc1cc(-c2c[nH]c(C(=O)N[C@H](CO)c3cccc(Cl)c3)c2)c(Cl)cn1 [ULIXERTINIB] | > 30 µM (inactive)
25 | CCCS(=O)(=O)Nc1ccc(F)c(C(=O)c2c[nH]c3ncc(-c4ccc(Cl)cc4)cc23)c1F [VEMURAFENIB] | > 30 µM (inactive)
26 | CC[C@@H]1C(=O)N(C)c2cnc(Nc3ccc(C(=O)N[C@H]4CC[C@H](N5CCN(CC6CC6)CC5)CC4)cc3OC)nc2N1C(C)C [VOLASERTIB] | > 30 µM (inactive)
27 | CCn1c(=O)c(-c2cc[nH]n2)cc2c(C)nc(N)nc21 [VOXTALISIB] | > 30 µM (inactive)
28 | O=C(Nc1ccc(-c2ccnc(Nc3ccc(N4CCOCC4)cc3)n2)cc1)C1CCCN1 (centres undefined) [XL-019] | > 30 µM (inactive)

target: GTP-binding nuclear protein Ran (Homo sapiens, UniProt P62826)

Row | Compound | Kd
29 | CN1CCC(COc2cnc(-c3cccc(Cn4nc(-c5cccc(C#N)c5)ccc4=O)c3)nc2)CC1 [TEPOTINIB] | > 30 µM (inactive)
30 | CC(=O)Nc1cccc(-n2c(=O)n(C3CC3)c(=O)c3c(Nc4ccc(I)cc4F)n(C)c(=O)c(C)c32)c1 [TRAMETINIB] | > 30 µM (inactive)
31 | CC(C)Nc1cc(-c2c[nH]c(C(=O)N[C@H](CO)c3cccc(Cl)c3)c2)c(Cl)cn1 [ULIXERTINIB] | > 30 µM (inactive)
32 | CCCS(=O)(=O)Nc1ccc(F)c(C(=O)c2c[nH]c3ncc(-c4ccc(Cl)cc4)cc23)c1F [VEMURAFENIB] | > 30 µM (inactive)
33 | CC[C@@H]1C(=O)N(C)c2cnc(Nc3ccc(C(=O)N[C@H]4CC[C@H](N5CCN(CC6CC6)CC5)CC4)cc3OC)nc2N1C(C)C [VOLASERTIB] | > 30 µM (inactive)
34 | CCn1c(=O)c(-c2cc[nH]n2)cc2c(C)nc(N)nc21 [VOXTALISIB] | > 30 µM (inactive)
35 | O=C(Nc1ccc(-c2ccnc(Nc3ccc(N4CCOCC4)cc3)n2)cc1)C1CCCN1 (centres undefined) [XL-019] | > 30 µM (inactive)

target: T2, Scaffold protein ILK (Homo sapiens, UniProt Q13418)
T2 sequence (Q13418 whole entry): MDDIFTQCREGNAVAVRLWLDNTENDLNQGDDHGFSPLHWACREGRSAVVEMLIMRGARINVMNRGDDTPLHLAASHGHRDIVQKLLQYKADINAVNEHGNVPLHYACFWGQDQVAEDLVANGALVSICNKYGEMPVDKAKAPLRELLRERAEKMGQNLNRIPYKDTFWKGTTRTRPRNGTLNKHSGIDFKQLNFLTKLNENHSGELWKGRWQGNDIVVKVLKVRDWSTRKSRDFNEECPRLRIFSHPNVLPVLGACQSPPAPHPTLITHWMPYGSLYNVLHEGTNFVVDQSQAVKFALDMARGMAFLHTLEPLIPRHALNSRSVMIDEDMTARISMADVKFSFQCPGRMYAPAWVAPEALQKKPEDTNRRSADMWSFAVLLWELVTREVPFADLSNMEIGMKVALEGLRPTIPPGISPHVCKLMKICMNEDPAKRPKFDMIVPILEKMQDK

Row | Compound | Kd
36 | CN1CCC(COc2cnc(-c3cccc(Cn4nc(-c5cccc(C#N)c5)ccc4=O)c3)nc2)CC1 [TEPOTINIB] | > 30 µM (inactive)
37 | CC(=O)Nc1cccc(-n2c(=O)n(C3CC3)c(=O)c3c(Nc4ccc(I)cc4F)n(C)c(=O)c(C)c32)c1 [TRAMETINIB] | > 30 µM (inactive)
38 | CC(C)Nc1cc(-c2c[nH]c(C(=O)N[C@H](CO)c3cccc(Cl)c3)c2)c(Cl)cn1 [ULIXERTINIB] | > 30 µM (inactive)
39 | CCCS(=O)(=O)Nc1ccc(F)c(C(=O)c2c[nH]c3ncc(-c4ccc(Cl)cc4)cc23)c1F [VEMURAFENIB] | > 30 µM (inactive)
40 | CC[C@@H]1C(=O)N(C)c2cnc(Nc3ccc(C(=O)N[C@H]4CC[C@H](N5CCN(CC6CC6)CC5)CC4)cc3OC)nc2N1C(C)C [VOLASERTIB] | > 30 µM (inactive)
41 | CCn1c(=O)c(-c2cc[nH]n2)cc2c(C)nc(N)nc21 [VOXTALISIB] | > 30 µM (inactive)
42 | O=C(Nc1ccc(-c2ccnc(Nc3ccc(N4CCOCC4)cc3)n2)cc1)C1CCCN1 (centres undefined) [XL-019] | > 30 µM (inactive)

target: T3, Ephrin type-B receptor 6 (Homo sapiens, UniProt O15197)
T3 sequence (O15197 whole entry): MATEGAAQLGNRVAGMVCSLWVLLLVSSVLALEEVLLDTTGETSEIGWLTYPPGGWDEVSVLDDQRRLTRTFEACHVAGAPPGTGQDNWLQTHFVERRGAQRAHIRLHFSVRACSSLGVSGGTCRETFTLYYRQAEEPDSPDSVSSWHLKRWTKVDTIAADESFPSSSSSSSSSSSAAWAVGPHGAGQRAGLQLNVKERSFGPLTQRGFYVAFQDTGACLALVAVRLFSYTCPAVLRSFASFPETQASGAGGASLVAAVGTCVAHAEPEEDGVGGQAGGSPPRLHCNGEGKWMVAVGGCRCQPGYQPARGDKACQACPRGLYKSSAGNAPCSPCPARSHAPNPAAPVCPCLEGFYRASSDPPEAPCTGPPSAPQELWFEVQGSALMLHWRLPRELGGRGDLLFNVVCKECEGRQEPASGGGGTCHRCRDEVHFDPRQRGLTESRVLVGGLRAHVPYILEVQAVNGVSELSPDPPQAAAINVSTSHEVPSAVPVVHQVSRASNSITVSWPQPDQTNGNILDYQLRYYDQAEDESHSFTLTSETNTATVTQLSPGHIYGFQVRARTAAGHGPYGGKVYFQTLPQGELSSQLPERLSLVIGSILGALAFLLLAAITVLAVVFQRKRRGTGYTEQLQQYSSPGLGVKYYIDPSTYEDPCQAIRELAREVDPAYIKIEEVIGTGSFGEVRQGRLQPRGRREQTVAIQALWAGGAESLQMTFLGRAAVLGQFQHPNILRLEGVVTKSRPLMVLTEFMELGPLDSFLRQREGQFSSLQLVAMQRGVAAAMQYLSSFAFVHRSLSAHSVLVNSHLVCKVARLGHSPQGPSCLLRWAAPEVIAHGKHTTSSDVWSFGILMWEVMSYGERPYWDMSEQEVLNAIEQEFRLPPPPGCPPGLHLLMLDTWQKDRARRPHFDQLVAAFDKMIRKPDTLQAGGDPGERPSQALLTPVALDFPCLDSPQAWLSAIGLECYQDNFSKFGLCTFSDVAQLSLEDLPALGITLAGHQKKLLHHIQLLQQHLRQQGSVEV

Row | Compound | Kd
43 | CN1CCC(COc2cnc(-c3cccc(Cn4nc(-c5cccc(C#N)c5)ccc4=O)c3)nc2)CC1 [TEPOTINIB] | > 30 µM (inactive)
44 | CC(=O)Nc1cccc(-n2c(=O)n(C3CC3)c(=O)c3c(Nc4ccc(I)cc4F)n(C)c(=O)c(C)c32)c1 [TRAMETINIB] | > 30 µM (inactive)
45 | CC(C)Nc1cc(-c2c[nH]c(C(=O)N[C@H](CO)c3cccc(Cl)c3)c2)c(Cl)cn1 [ULIXERTINIB] | > 30 µM (inactive)
46 | CCCS(=O)(=O)Nc1ccc(F)c(C(=O)c2c[nH]c3ncc(-c4ccc(Cl)cc4)cc23)c1F [VEMURAFENIB] | > 30 µM (inactive)
47 | CC[C@@H]1C(=O)N(C)c2cnc(Nc3ccc(C(=O)N[C@H]4CC[C@H](N5CCN(CC6CC6)CC5)CC4)cc3OC)nc2N1C(C)C [VOLASERTIB] | > 30 µM (inactive)
48 | CCn1c(=O)c(-c2cc[nH]n2)cc2c(C)nc(N)nc21 [VOXTALISIB] | > 30 µM (inactive)
49 | O=C(Nc1ccc(-c2ccnc(Nc3ccc(N4CCOCC4)cc3)n2)cc1)C1CCCN1 (centres undefined) [XL-019] | > 30 µM (inactive)
